This assay deals with Nucleic Acid. Nature of the assay: Concentration required for 50% displacement of ethidium bromide from p[dA]p[dT] in a fluorescence intercalator displacement (FID) assay. The class given is nucleic-acid assay.

We go through 9 compounds from ChEMBL document CHEMBL1135337, “Synthesis and DNA binding properties of saturated distamycin analogues” (Bioorg Med Chem Lett, 2002).

Turning to `N=C(N)CCNC(=O)[C@H]1C[C@H](NC(=O)[C@H]2C[C@H](NC(=O)[C@H]3C[C@H](NC=O)CN3)CN2)CN1`, the C50 was determined as 6.37 µM. The compound `CN1C[C@@H](NC(=O)[C@H]2C[C@H](NC(=O)[C@H]3C[C@H](NC=O)CN3C)CN2C)C[C@@H]1C(=O)NCCC(=N)N` came in with a C50 of 6.7 µM. To `Cn1cc(NC(=O)c2cc(NC(=O)c3cc(NC=O)cn3C)cn2C)cc1C(=O)NCCC(=N)N` belongs 0.46 µM; to `N=C(N)CCNC(=O)[C@@H]1CC[C@@H](NC(=O)[C@@H]2CC[C@@H](NC(=O)[C@@H]3CC[C@@H](NC=O)C3)C2)C1`, 7.91 µM; to `N=C(N)CCNC(=O)[C@H]1C[C@H](NC(=O)[C@H]2C[C@H](NC(=O)C3C[C@H](NC=O)CN3C(=O)OCc3ccccc3)CN2C(=O)OCc2ccccc2)CN1C(=O)OCc1ccccc1` (some centres undefined), 4.7 µM. To `N=C(N)CCNC(=O)[C@@H]1C[C@@H](NC(=O)[C@@H]2C[C@@H](NC(=O)[C@@H]3C[C@@H](NC=O)CN3)CN2)CN1` belongs 8.55 µM; to `N=C(N)CCNC(=O)[C@@H]1C[C@@H](NC(=O)[C@@H]2C[C@@H](NC(=O)[C@@H]3C[C@@H](NC=O)CN3C(=O)OCc3ccccc3)CN2C(=O)OCc2ccccc2)CN1C(=O)OCc1ccccc1`, 5.1 µM; to `N=C(N)CCNC(=O)[C@H]1C[C@H](NC(=O)[C@H]2C[C@H](NC(=O)[C@H]3C[C@H](NC=O)CO3)CO2)CO1`, 5.4 µM. Next, `N=C(N)CCNC(=O)[C@@H]1C[C@@H](NC(=O)[C@@H]2C[C@@H](NC(=O)[C@@H]3C[C@@H](NC=O)CO3)CO2)CO1`: 5.5 µM.
